Here are results for 1 compound from ChEMBL document CHEMBL5325456, “5-(4-Hydroxyphenyl)-3H-1,2-dithiole-3-thione derivatives of brefeldin A: Design, synthesis and cytotoxicity in MDA-MB-231 human breast cancer cells” (Bioorg Med Chem, 2023).

The source made the active and inactive calls. The calls are words filed in the database; no cut-off is given here.

Assay [1] relates to MDA-MB-231. Briefly: Induction of cell cycle arrest in human MDA-MB-231 cells assessed as accumulation of cells at S phase at 82.5 nM incubated for 48 hrs by flow cytometry analysis (reference value: 36.51%). In kind it is functional.
The subject of assay [2] is MDA-MB-231. In words: Induction of apoptosis in human MDA-MB-231 cells assessed as early apoptotic cells at 82.5 nM incubated for 48 hrs by Annexin-V/FITC-PI staining based flow cytometry analysis (reference value: 2.93 %). In kind it is functional.
Assay [3] relates to Cell membrane. In words: Induction of mitochondrial membrane potential loss in human MDA-MB-231 cells assessed as proportion of MMP decreased cells at 82.5 nM and measured for 48 hrs by JC-1 staining based flow cytometry assay (reference value: 4.40%). The format is subcellular. Also on record: scale not given: the % may be the effect or the level left.
Assay [4] has as its system Cell membrane. In words: Induction of mitochondrial membrane potential loss in human MDA-MB-231 cells assessed as proportion of MMP decreased cells at 0.33 uM and measured for 48 hrs by JC-1 staining based flow cytometry assay (reference value: 4.40%). Also on record: scale not given: the % may be the effect or the level left. In kind it is subcellular.
Assay [5] has as its system MDA-MB-231. Briefly: Induction of apoptosis in human MDA-MB-231 cells assessed as early apoptotic cells at 0.165 uM incubated for 48 hrs by Annexin-V/FITC-PI staining based flow cytometry analysis (reference value: 2.93 %). The format is functional.
The subject of assay [6] is MDA-MB-231. Briefly: Induction of DNA damage in human MDA-MB-231 cells assessed as tail DNA at 82.5 nM incubated for 48 hrs by Comet assay (reference value: 0.007 %). The format is functional.
For assay [7], the system named is MDA-MB-231. Briefly: Inhibition of cell migration in human MDA-MB-231 cells assessed as wound healing rate at 82.5 nM measured for 24 hrs by scratch wound healing assay (Rvb= 230.22 +/- 32.21 %). The format is functional. Also on record: scale not given: the % may be the effect or the level left.
Assay [8] relates to MDA-MB-231. Briefly: Inhibition of cell adhesion in human MDA-MB-231 cells assessed as reduction in cell adhesion by measuring fluorescence intensity at 82.5 to 330 nM incubated for 48 hrs by flow cytometry analysis. In kind it is functional, cell-based. To be noted: dose 82.5-330 nM.
The test system of assay [9] is MDA-MB-231. Briefly: Induction of apoptosis in human MDA-MB-231 cells assessed as viable cells at 82.5 nM incubated for 48 hrs by Annexin-V/FITC-PI staining based flow cytometry analysis (reference value: 93.74 %). The format is functional. To be noted: read-out: Activity.
Assay [10] relates to MDA-MB-231. In words: Induction of apoptosis in human MDA-MB-231 cells assessed as necrotic cells at 0.33 uM incubated for 48 hrs by Annexin-V/FITC-PI staining based flow cytometry analysis (reference value: 0.99 %). In kind it is functional.

As for `C[C@H]1CCC/C=C/[C@@H]2C[C@H](O)C[C@H]2[C@H](OC(=O)CCCC(=O)OCCOc2ccc(-c3cc(=S)ss3)cc2)/C=C/C(=O)O1`, the Activity in the assay on MDA-MB-231 [1] came out at 30.23%; in the assay with MDA-MB-231 [2], 10.01%; in the assay with Cell membrane [3] it was 16.3%; with Cell membrane [4], 49.8%; with MDA-MB-231 [5], 10.14%; with MDA-MB-231 [6], 20.49%. Further, the Activity in the assay with MDA-MB-231 [7] came to 383.42%; with MDA-MB-231 [10], 4.11%. Moreover, the inhibition entry with MDA-MB-231 [8] was “Active”. Moreover, in the assay with MDA-MB-231 [9], the viability at 0.0825 µM stood at 82%.
